These results are taken from patent US20210100905A1, “APPLICATION OF COMPOUND OR TRADITIONAL CHINESE MEDICINE EXTRACT IN PREPARATION OF NUCLEIC ACID DELIVERY AGENT, AND RELATED PRODUCTS” (INSTITUTE OF BASIC MEDICAL SCIENCES CHINESE ACADEMY OF …, priority 2018, published 2021).

Entries after “also recorded” stand apart in the source; their conditions may differ.

Assay [1] in a line: In vivo delivery of single-stranded sRNA by single lipid, gavage (Example 11). Also on record: species or system C57 mice. Particulars: FIGS. 108, 112-115; oral (gavage), 10 μL lipid, sRNA 1 nmol each, heating method, 12 hours; vs POPC and Lipofectamine RNAiMAX. How it is done:
1. Experimental animals: C57 mice, male, approximately 6 weeks old.
2. Manufacture of lipid mixture: the prepration was conducted on the basis of a dose of 10 μ1 lipid-1 nmol sRNA per mouse as follows: dissolved 1 nmol of each sRNA in 500 μl DEPC water, added 10 μl of the corresponding lipid, pipette to mix thoroughly, and then naturally cooled down after water bath for 15 min at 90° C., and administered via gavage.
1) Tissue sampling and extraction of RNA: 6 hours after gavage in mice, took 500 μl of blood from the eyeball, added 1.5 ml Trizol Reagent LS to thoroughly mix and lyse, added 3 ml Trizol Reagent (purchased from Invitrogen) to the tissue samples and homogenized until complete lysis. Tissues sampled: live/stomach/small intestine.
2) Reverse transcription of sRNA to cDNA: Reverse Transcription Kit (High-Capacity cDNA Reverse Transcription Kits, Applied Biosystems, cat. no. 4368813), was used to reverse transcribe the total RNA to cDNA, and the reverse system was as follows: template RNA (150 ng/μL) 10 μL, 10× RT buffer, 2.0 μL, 25× dNTP Mix (100 mM) 0.8 μL, random primers 2.0 μL, the Multi Scribe™ reverse Transcriptase 1.0 μL, RNase inhibitor 1.0 μL, nuclease-free H2O 3.2 μL. After a brief centrifugation, the reaction was loaded in a PCR reactor. The reaction conditions were as follows: (1) 25° C., 10 min; (2) 37° C., 120 min; (3) 85° C., 5 min; (4) 4° C., termination of the reaction. After the reaction, 20 μL RNase-free ddH2O was added to make up the final volume to 40 μL.
LightCycler 480 fluorescence quantitative PCR instrumentwas used, and the PCR reaction conditions were: 95° C. , 5 min for pre-denaturation, followed by the PCR amplification cycle: (1) 95° C., 10 s; (2) 55° C., 10 s; (3) 72° C., 20 s; a total of 40 cycles; 40° C. for 10 s in the end to cool down. The forward primer and reverse primer of the amplification reaction were designed and synthesized by Beijing Qing Ke New Industrial Biotechnology Co., Ltd. (U6 F primer: GCGCGTCGTGAAGCGTTC (SEQ ID NO: 23), U6 R primer: GTGCAGGGTCCGAGGT (SEQ ID NO: 24)).
3) The relative expression amount was calculated by the 2-ΔCt method.
5) Treatment group of single lipid and nucleic acid mixture: a mixture of 10 μL of single lipid (No. 41) with single-stranded sRNA mixure solution (PGY-sRNA-23, PGY-sRNA-26 and PGY-sRNA-32, 1 nmol each) was treated by heating method and then given to mice via intragastric administration.
2. 12 hours after intragastric administration, the blood was taken from the eyeball, and various tissues (liver/stomach/small intestine) was sampled. TRIzol was used for full lysis and the RNA was extracted to detect the amount of entry.

The subject of assay [2] is A549 cells. As to the kind of experiment: Digital PCR (ddPCR) detection of the efficiency of nucleic acid delivery by lipid. It counts as cell-based, human. Conditions: boiling or reverse evaporation method; samples after 6 hours (No. 39: reverse evaporation, 6 and 12 hours). The source says: 2.1 Experimental materials: A549 cells were purchased from the Cell Center of the Institute of Basic Medical Sciences, Chinese Academy of Medical Sciences, TRIzol lysis buffer was purchased from Sigma, High capacity cRNA Reverse Transcription Kit was purchased from ABI, USA, and the digital PCR related reagents were purchased from Bio-Rad USA.
2.2 Experimental method: the total cellular RNA was collected and extracted by TRIzol lysis buffer according to the above methods, and reverse transcribed to cDNA using High capacity cRNA Reverse Transcription Kit, and the cDNA from different groups was subject to digital PCR reaction. Refering to the QX200 Droplet Reader and QuantaSoft Software manual for the protocols, the results were analyzed using QuantaSoft software.
2.2 Experimental method: total RNA was collected and extracted by TRIzol lysis buffer according to the above method, and reverse transcribed to cDNA using High capacity cRNA Reverse Transcription Kit, and the cDNA from different groups was subjected to digital PCR reaction. Refer to the QX200 Droplet Reader and QuantaSoft Software manual for the protocols; the results were analyzed using QuantaSoft software.
2.2 Experimental method: Total RNA was collected and extracted by TRIzol lysis buffer according to the above method, and reverse transcribed to cDNA using TaqMan™ MicroRNA Reverse Transcription KitHigh, and the cDNA from different groups was subjected to digital PCR reaction. Refer to the QX200 Droplet Reader and QuantaSoft Software manual for the protocols; the results were analyzed using QuantaSoft software.
2.2 Experimental method: Total RNA was collected and extracted by TRIzol lysis buffer according to the above method, and reversed to cDNA using High capacity cRNA Reverse Transcription Kit, and the cDNA from different groups was subjected to digital PCR reaction. Refer to the QX200 Droplet Reader and QuantaSoft Software manual for the protocols; the results were analyzed using QuantaSoft software.

Assay [3] relates to A549 cell (human lung adenocarcinoma cell). Kind of assay: In vitro delivery of lipid nucleic acid mixture, RT-qPCR of intracellular small RNA. Format: cell-based. Particulars: single lipid prepared by boiling or reverse evaporation method; RNA 100 nM; FIGS. 76, 91, 96, 99, 104, 106, 107. How it is done: 3.1 NCI-N87 cell (gastric cancer cell), MRC-5 cell (lung fibroblast), A549 cell (lung cancer cell) were cultured to logarithmic growth phase, and then plated to a six-well plate at cell density of 1×10^6/2 mL medium/well; MRC-5 cell was cultured in Eagle's MEM medium (MEM, Gibco); A549 cell was cultured in Ham's F-12 medium (HyClone); NCI-N87 cell was cultured in RPMI-1640 medium (HyClone); followed by incubation overnight at 37° C., and the follow-up experiments were performed after the cells were attached to the walls.
3.3 After co-incubation with the small RNA for 3 hours, the cells were washed 2-3 times with PBS. The cells were harvested with TRIzol lysis buffer, and the total RNA was extracted. The abundance of small RNA that entered cells was detected by RT-qPCR, and the localization of RNA was detected by fluorescence in situ hybridization; protocols of each detection method were as follows:
1) The sRNA was reverse transcribed to cDNA: Reverse Transcription Kit (High-Capacity cDNA Reverse Transcription Kits, Applied Biosystems, cat. No. 4368813) was used to reverse transcribe sRNA into cDNA by stem-loop method, and the reverse transcription system was as follows: RNA template (150 ng/μl) 10 μl, 10×RT buffer, 2.0 μl, 25× dNTP Mix (100 mM) 0.8 μl, U6 RT stem-loop primer 2.0 μl, HJT-sRNA-RT-m7 stem-loop primer 2.0 μl, MultiScribe™ reverse transcriptase 1.0 μl, RNase inhibitor 1.0 μl, nuclease-free H2O 1.2 μl, loaded into a PCR reactor after brief centrifugation, the reaction conditions were as follows: (1) 25° C., 10 min; (2) 37° C., 120 min; (3) 85° C., 5 min; (4) 4° C., termination of the reaction. 20 μl RNase-free ddH2O was added to make up the final volume to 40 μl after the reaction. The stem-loop primer used in the reverse transcription process was synthesized by Beijing Tsingke Biotechnology Co., Ltd.
2) Quantitative PCR amplification reaction: the qPCR reaction system has a total volume of 10 μl, containing: 5 μL 2×SYBR Green Master Mix, 0.5 μl forward primer ([…]), 0.5 μl reverse primer (10 μM), 1 μl cDNA by reverse transcription, 3 RNase-free dH2O. LightCycler 480 fluorescence quantitative PCR instrument was used, and the PCR reaction conditions were: 95° C. for 5 min for pre-denaturation, followed by PCR amplification cycle: (1) 95° C., 10 s; (2) 55° C., 10 s; (3) 72° C. , 20 s; a total of 40 cycles; 40° C. for 10 s in the end to cool down. Both the forward and reverse primers of the amplification reaction were designed and synthesized by Beijing Tsingke Biotechnology Co., Ltd.
3) The relative expression level was calculated by 2-ΔCt method.
100 μl lipid in diethyl ether solution was prepared, and grouped according to the lipid numbers shown in Table 1 (the lipid concentrations are shown in the table below). To the lipid solution was added 20 μl nucleic acid solution (HJT sRNA or siRNA) at the volume ratio of 5:1, and sonicated for after 3 min. The diethyl ether was removed by evaporation at 55° C., and then 100 μl DEPC water was added for hydration to give nucleic acid lipid mixture.
100 μL of the nucleic acid solution (HJT sRNA or siRNA) was added to 2-5 μL of the lipid in chloroform (the concentration was shown in Table 1), mixed, and heated at 80-100° C. for 15-30 min to give nucleic acid lipid mixture.
3.1.1 MRC-5 cell (pulmonary embryonic fibroblast), A549 cell (human lung adenocarcinoma cell), Caco-2 cell (human colon adenocarcinoma cell) (purchased from the Cell Resource Center of the Institute of Basic Medical Sciences, Chinese Academy of Medical Sciences) were cultured to logarithmic growth phase, then plated into 12-well plates at a cell density of 6×10^5/1 mL medium/well; MRC-5 and Caco-2 cells were cultured in Eagle's MEM medium (MEM, Gibco); A549 cells were cultured in Ham's F-12 medium (HyClone); followed by incubation overnight at 37° C., and the follow-up experiments were performed after the cells were attached to the walls. […]

In the case of `CCCCCCCCCCCCCCCC(=O)OCC(COP(=O)(O)OCCN)OC(=O)CCCCCCCCCCCCCCC` (stereo not drawn) [No. 71, 1,2-Dipalmitoyl-sn-Glycero-3-Phosphatidyl-ethanolamine], in assay [1], the “delivery of sRNA single-stranded nucleic acid into mouse blood” value is “could effectively deliver sRNA single-stranded nucleic acid into mouse blood via oral administration; also recorded: the delivery effect was better than POPC and Lipofectamine RNAiMAX”.
As for `CCCCCC/C=C\CCCCCCCCCC(=O)O[C@H](COC(=O)CCCCCCC/C=C\CCCCCC)COP(=O)(O)OCCN` [No. 39, (2-aminoethoxy) [(2R)-3-[(9Z)-hexadec-9-enoyloxy]-2-[(11Z)-octadec-11-enoyloxy]propoxy] phosphinic acid], in assay [2], the “delivery of HJT-sRNA-m7 dsRNA into A549 cells (ddPCR)” value was “could effectively deliver HJT-sRNA-m7 dsRNA into A549 cells”. Besides, the “delivery of HJT-sRNA-m7 double-stranded RNA into A549 cells (real-time PCR)” value in assay [3] is reported as “delivered double-stranded RNA into A549 cells”.
